Source: publication PMC4813479, “β-Subunit Binding Is Sufficient for Ligands to Open the Integrin αIIbβ3 Headpiece” (The Journal of Biological Chemistry, 2015)
Where “and” joins values, the source holds several entries; their conditions need not be identical. Identical values can stand only once. Like-named read-outs stand apart in the source and are kept apart here. One block for each compound: values may come before it. Non-standard residues stand in square brackets, D forms with d. Residues, ends and D or L forms follow the SMILES beside them. No end group written: not given here.

Experiments:
[1] = target: T1, αIIbβ3 headpiece (Homo sapiens, UniProt P05106+P08514); assay: Fluorescence anisotropy binding assay (saturation and competition with FITC-dodecapeptide); set-up: increasing the concentration of purified recombinant αIIbβ3 headpiece to saturation; C-terminal α-helical coiled-coil (C); made in house; details: for reduction in affinity relative to AGDV: fluorescence anisotropy, Mn2+/Ca2+; for Kd: read-out: KD, competitive binding
Description: Binding affinities for different peptide ligands were measured using fluorescence anisotropy as described previously ([12]). Anisotropy is defined as (F‖ − F⊥)/(F‖ + 2F⊥), where F‖ and F⊥are the fluorescence intensities parallel and perpendicular to the excitation plane, respectively. mA units (shown in figures) correspond to 1,000 × anisotropy. […] KD^F* was fitted using one-site, specific binding; i.e. A = Amax × Citg/(KD^F* + Citg), where A represents the anisotropy signal from specific binding, Citg represents the concentration of integrin αIIbβ3 headpiece, and Amax is the maximum anisotropy signal. Background anisotropy obtained by adding an excess of 10 μM tirofiban was subtracted from anisotropy.
I50 values for unlabeled peptides were obtained by least squares fitting. […] All measurements were in 20 mM HEPES, pH 7.5, 150 mM NaCl, 2 mM MnCl2, 0.1 mM CaCl2. The Prism GraphPad program (La Jolla, CA) was used to fit the saturation binding curve, inhibition curves, and I50 values.

[2] = target: T1, αIIbβ3 headpiece; assay: Size-exclusion chromatography (Superdex 200) of headpiece with peptide: headpiece opening; details: for elution volume of αIIbβ3 headpiece: Superdex 200, 1 mM peptide, buffer alone 12.56 ± 0.01 ml, mean; for Stokes radii, Size-exclusion: αIIbβ3 headpiece (10 μM) + 1 mM peptide, Superdex 200, TBS, 1 mM Mg2+/Ca2+, 25 °C, 30 min, headpiece alone 4.78 ± 0.02, duplicate, mean and difference from mean
Description: (§1) Digested headpiece was purified by passage through a nickel-nitrilotriacetic acid column ([13]). For Stokes radius measurements, the re-purified headpiece at 10 μM (1 mg/ml by A280) was incubated with 1 mM peptide ligand in 20 mM TBS with 1 mM Mg^2+ and 1 mM Ca^2+ at 25 °C for 30 min and then applied to a Superdex 200 column (GE Healthcare Life Sciences) pre-equilibrated with the same buffer containing 1 mM peptide. Calibration and conversion of elution volume to Stokes radius was as described ([11]). For DLS, 20 μM chymotrypsin-treated, re-purified headpiece was filtered through a 100 nm cutoff membrane (Millipore Ultrafree centrifugal filter), incubated with 1 mM peptide in TBS plus 1 mM Mg^2+/Ca^2+ for 10 min at 25 °C in the cuvette, and read in the Viscotek 802 DLS (Viscotek Corp.). The DLS-derived hydration radii (Rh) were obtained by intensity-based fitting using the OmniSize program for 2–3 independent measurements using the same batch of integrin headpiece sample, but measured in different days. Each measurement was an average of at least fifteen 10-s reads.
(§2) The change in Stokes radius was also measured by size-exclusion chromatography (Fig. 3B).

[3] = target: T1, αIIbβ3 headpiece; assay: Dynamic light scattering (DLS) of headpiece with peptide: headpiece opening; details: αIIbβ3 headpiece (20 μM) + 1 mM peptide; TBS pH 7.4, 1 mM Mg2+, 1 mM Ca2+, 10 min, 25 °C; headpiece alone 4.69 ± 0.02; triplicate, mean ± S.D.
Description: as §1, §2

[4] = target: T1, αIIbβ3 headpiece; assay: Ligand soaking into closed αIIbβ3 headpiece crystals, conformational state by X-ray structure; set-up: increasing the concentration of purified recombinant αIIbβ3 headpiece to saturation; C-terminal α-helical coiled-coil (C); made in house; details: 4 °C, state 1 closed, state 8 open
Description: The αIIbβ3 headpiece was crystallized in the closed conformation with the thigh domain removed ([11]). Briefly, chymotrypsin- and carboxypeptidase-treated αIIbβ3-10E5 Fab complex was concentrated to 10 mg/ml in TBS (20 mM Tris, 150 mM NaCl, pH 7.4) with 1 mM Mg^2+, 1 mM Ca^2+ and crystallized in 11% PEG 8000, 0.2 M ammonium sulfate, 0.1 M Tris-HCl, pH 8.9 at 4 °C ([11]). Crystals were then stabilized with the same crystallization buffer but containing 15% PEG 8000, and glycerol concentration was incremented in 5% steps to 20% for cryoprotection. Finally, crystals were soaked in ligand in the same buffer with defined metal conditions for a specified duration at 4 °C (see Table 1). Diffraction data were collected at beamline ID-23 of the Advanced Photon Source (Argonne, IL). Resolution limit was determined by cross-correlation ([14]). Refinements using Phenix ([15]) were as described previously ([4]).
We soaked AGDV peptide into αIIbβ3 headpiece crystals in the closed conformation (state 1) in 1 mM Mn^2+ and 0.2 mM Ca^2+ and were able to trap four distinct intermediate states during headpiece opening (Table 1). […] Two copies of the αIIbβ3 headpiece complex (molecules 1 and 2) exist in one asymmetric unit ([4]), so we were able to obtain two different conformational states in a single crystal (Table 1). Based on the conformation and position of the moving parts of the βI domain, i.e. the β1-α1 loop, α1-helix, β6-α7 loop, and the ADMIDAS metal, each intermediate (Fig. 4) is assigned a state number between 1 (Fig. 4A) and 8 (Fig. 4B) corresponding to previous RGD-bound intermediates ([4]). AGDV binds in the groove formed between the α- and β-subunits (Fig. 4, C, E, G, and I), but has limited contact with α, because it occupies only a portion (about two-thirds) of the groove occupied by RGD (Fig. 4B). The N-terminal amine of AGDV is >9.0 Å away from Asp-224 of αIIb, which forms salt bridges to the Arg of RGD and the Lys of KQAGDV. Moreover, unlike the extended backbone conformation adopted by RGD (Fig. 4, A and B), the backbone of AGDV is curved (Fig. 4, C, E, G, and I).

[5] = target: T2, CHO cells stably expressing full-length human αIIbβ3 (Homo sapiens, UniProt P05106+P08514); assay: Ligand-induced binding site (LIBS1) epitope expression, flow cytometry; format: cell-based
T2 construct: CHO K1 cells stably transfected with full-length αIIbβ3; expressed in transfected cells; host or cells: CHO K1 cells, stably transfected
Description: CHO K1 cells stably transfected with full-length αIIbβ3 ([16]) were incubated at room temperature with serially diluted peptide in 20 mM HEPES, pH 7.4, 150 mM NaCl, 5.5 mM glucose, 1% BSA, 1 mM Mg^2+/Ca^2+, and 10 μg/ml LIBS1 antibody for 30 min. Mixtures were washed twice in the same buffer minus LIBS1. The washed cells were incubated with FITC-conjugated anti-mouse antibody at room temperature for 30 min, washed again, chilled on ice, and subjected to flow cytometry. The dose-response curves were fit, and EC50 values were calculated by Prism GraphPad.

[6] = system: αIIbβ3; details: cited from earlier work
From the text: Ro-435054 is a 4-residue peptidomimetic, with an N-terminal amidinobenzoyl, a β-alanine, an L-Asp, and a C-terminal L-Phe (Fig. 7A). […] The high-affinity RGDF peptide ([19]) may be considered both fibrinogen-mimetic and RGD-mimetic. RGDF has the same two C-terminal a ...

[7] = system: fibrinogen binding to platelets; set-up: method as in PMID 6326808; details: read-out: IC50, block of fibrinogen binding to platelets; cited from earlier work

T1 sequence (P08514 32-652 limits assumed): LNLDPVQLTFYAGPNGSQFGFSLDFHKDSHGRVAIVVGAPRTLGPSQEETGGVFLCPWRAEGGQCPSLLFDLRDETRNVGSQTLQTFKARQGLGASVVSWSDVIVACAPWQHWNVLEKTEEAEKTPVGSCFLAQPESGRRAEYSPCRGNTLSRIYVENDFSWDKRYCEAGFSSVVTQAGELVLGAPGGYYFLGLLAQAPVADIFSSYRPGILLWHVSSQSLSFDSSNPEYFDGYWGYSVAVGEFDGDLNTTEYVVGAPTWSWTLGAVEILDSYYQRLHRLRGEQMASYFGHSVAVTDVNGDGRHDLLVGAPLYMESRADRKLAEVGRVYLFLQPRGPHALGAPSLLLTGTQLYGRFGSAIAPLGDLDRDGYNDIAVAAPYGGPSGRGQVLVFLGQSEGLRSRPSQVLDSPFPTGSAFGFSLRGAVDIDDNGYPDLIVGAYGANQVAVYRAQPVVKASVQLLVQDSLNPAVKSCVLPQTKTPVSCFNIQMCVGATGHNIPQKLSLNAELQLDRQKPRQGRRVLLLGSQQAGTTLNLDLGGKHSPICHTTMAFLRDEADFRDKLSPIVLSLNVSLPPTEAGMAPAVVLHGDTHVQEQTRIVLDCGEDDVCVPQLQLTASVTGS
T1 sequence (P05106 27-498 limits assumed): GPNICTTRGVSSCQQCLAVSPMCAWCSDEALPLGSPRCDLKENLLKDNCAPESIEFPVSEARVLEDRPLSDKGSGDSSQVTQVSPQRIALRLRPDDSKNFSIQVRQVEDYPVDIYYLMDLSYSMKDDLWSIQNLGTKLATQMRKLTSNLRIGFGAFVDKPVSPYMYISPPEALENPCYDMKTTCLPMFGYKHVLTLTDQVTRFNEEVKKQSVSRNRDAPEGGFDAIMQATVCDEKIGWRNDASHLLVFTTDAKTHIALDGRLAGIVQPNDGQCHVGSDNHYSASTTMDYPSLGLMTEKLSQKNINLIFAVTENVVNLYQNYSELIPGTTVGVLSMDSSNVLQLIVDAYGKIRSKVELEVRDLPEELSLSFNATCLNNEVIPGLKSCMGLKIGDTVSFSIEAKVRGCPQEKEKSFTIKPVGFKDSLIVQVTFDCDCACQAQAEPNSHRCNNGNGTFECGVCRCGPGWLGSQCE
T2 sequence (P08514 32-887 limits assumed): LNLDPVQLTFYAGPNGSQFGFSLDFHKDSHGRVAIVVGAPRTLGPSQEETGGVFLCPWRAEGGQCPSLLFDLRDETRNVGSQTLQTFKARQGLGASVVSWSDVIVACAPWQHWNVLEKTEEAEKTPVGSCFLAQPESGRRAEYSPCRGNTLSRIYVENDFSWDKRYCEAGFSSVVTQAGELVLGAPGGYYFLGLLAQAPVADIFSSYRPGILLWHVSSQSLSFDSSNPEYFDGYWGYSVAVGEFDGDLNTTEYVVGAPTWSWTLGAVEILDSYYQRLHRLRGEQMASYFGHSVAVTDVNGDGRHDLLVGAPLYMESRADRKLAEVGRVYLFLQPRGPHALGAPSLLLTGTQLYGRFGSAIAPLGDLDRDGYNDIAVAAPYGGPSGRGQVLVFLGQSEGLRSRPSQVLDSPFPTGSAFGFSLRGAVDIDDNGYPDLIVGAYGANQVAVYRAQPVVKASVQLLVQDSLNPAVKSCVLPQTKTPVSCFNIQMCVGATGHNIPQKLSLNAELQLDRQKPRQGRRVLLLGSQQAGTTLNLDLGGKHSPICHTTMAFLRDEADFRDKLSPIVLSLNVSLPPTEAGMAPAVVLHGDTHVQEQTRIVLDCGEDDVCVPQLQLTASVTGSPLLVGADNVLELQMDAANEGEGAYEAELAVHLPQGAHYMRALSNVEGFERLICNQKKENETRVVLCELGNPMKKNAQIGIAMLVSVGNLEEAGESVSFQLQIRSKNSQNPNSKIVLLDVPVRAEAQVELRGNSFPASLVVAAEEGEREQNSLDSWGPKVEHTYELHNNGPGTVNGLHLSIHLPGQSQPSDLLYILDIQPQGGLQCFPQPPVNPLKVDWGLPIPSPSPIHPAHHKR
T2 sequence (P08514 891-1039 partner limits assumed): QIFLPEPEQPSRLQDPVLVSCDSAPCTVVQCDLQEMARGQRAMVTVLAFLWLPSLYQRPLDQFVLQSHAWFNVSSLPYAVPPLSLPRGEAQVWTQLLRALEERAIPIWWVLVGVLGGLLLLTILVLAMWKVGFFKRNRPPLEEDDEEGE
T2 sequence (P05106 27-788): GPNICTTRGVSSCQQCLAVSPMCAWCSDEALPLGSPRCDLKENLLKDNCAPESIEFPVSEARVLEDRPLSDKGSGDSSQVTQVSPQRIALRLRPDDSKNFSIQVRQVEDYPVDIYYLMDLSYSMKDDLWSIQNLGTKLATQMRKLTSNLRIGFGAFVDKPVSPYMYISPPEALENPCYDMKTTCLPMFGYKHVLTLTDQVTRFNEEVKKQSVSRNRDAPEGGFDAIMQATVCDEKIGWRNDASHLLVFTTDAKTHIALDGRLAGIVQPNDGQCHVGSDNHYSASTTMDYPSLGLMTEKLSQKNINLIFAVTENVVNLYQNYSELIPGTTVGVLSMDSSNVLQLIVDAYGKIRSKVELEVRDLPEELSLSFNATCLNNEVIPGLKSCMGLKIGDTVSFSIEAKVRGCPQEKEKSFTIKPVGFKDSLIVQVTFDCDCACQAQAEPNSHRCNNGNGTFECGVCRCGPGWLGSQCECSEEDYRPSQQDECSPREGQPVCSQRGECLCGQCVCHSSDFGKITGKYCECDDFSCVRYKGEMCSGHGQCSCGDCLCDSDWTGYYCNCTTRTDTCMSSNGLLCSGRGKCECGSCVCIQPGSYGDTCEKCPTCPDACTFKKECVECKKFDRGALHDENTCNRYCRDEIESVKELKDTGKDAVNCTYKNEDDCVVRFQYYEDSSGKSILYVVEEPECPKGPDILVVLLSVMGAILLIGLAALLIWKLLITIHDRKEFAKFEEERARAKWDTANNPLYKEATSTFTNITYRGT

elution volume of αIIbβ3 headpiece [2]: 12.19 ± 0.05 mL
Stokes radii, Size-exclusion [2]: 5.17 nm
Stokes radii, DLS [3]: 5.24 ± 0.03 nm and 5.2 nm
Conformational states (molecule 1/molecule 2) ([4]; 50 mM ligand, Mn/Ca (2 mM MnCl2, 0.1 mM CaCl2), soak 1 week): State 7/state 2
Conformational states (molecule 1/molecule 2) ([4]; 50 mM ligand, Mn/Ca (2 mM MnCl2, 0.1 mM CaCl2), soak 2 h): State 6/state 3
less potent than the dodecapeptide ([1]; in Mn2+/Ca2+, ratio of KD values): ~7 times
Kd [1]: 9.03 ± 2.75 µM
less effective than GRGDSP (LIBS1 EC50) ([5]; ratio of EC50 values): ~7 times
less effective when compared with dodecapeptide (LIBS1 EC50) ([5]; ratio of EC50 values): 2.5 times
Compound: CC(C)[C@H](NC(=O)[C@H](CC(=O)O)NC(=O)CNC(=O)[C@H](C)N)C(=O)O [AGDV] (H-AGDV-OH)

Kd [1]: 1 ± 0.46 µM
Compound: CC(=O)N[C@@H](C)C(=O)NCC(=O)N[C@@H](CC(=O)O)C(=O)N[C@H](C(=O)O)C(C)C [Ac-AGDV, N-acetylated AGDV] (Ac-AGDV-OH)

Conformational states (molecule 1/molecule 2) ([4]; 1 mM ligand, Mg/Ca (1 mM MgCl2, 1 mM CaCl2), soak 2 h): State 6/state 3
Compound: N=C(N)c1ccc(C(=O)NCCC(=O)N[C@@H](CC(=O)O)C(=O)N[C@@H](Cc2ccccc2)C(=O)O)cc1 [Ro-435054]
binds the high-affinity state better than the low-affinity state [6]: ~100 fold
Kd ([6]; read-out: KD, high-affinity state of αIIbβ3): 6 nM
Kd ([6]; read-out: KD, low-affinity state of αIIbβ3): 580 nM

Kd [1]: 1.27 ± 0.08 µM
EC50 ([5]; CHO K1 αIIbβ3 transfectants, 1 mM Mg2+/1 mM Ca2+, 10 μg/ml LIBS1, 30 min, room temperature, flow cytometry, mean ± S.D., read-out: EC50, LIBS1 epitope exposure): 578 ± 222 µM
Compound: HHLGGAKQAGDV [fibrinogen γC dodecapeptide, reference compound]

elution volume of αIIbβ3 headpiece [2]: 12.15 ± 0.06 mL
Stokes radii, Size-exclusion [2]: 5.23 nm
Stokes radii, DLS [3]: 5.19 ± 0.04 nm
Compound: RGDF [reference compound]

The next lines start with the compound.

Compound: CC(C)[C@@H](NC(=O)[C@H](CC(=O)O)NC(=O)CNC(=O)[C@H](C)N)C(=O)O [AGD(v)] (H-AGD[dV]-OH)
reduction in affinity relative to AGDV ([1]; ratio of KD values): 24 fold
Kd [1]: 217 ± 85.2 µM

Compound: CC(C)[C@H](NC(=O)[C@H](CC(=O)O)NC(=O)CNC(=O)[C@H](C)N)C(N)=O [AGDV-NH2] (H-AGDV-NH2)
Kd [1]: 50.9 ± 13 µM

Compound: COC(=O)[C@@H](NC(=O)[C@H](CC(=O)O)NC(=O)CNC(=O)[C@H](C)N)C(C)C [AGDV-OCH3] (H-AGDV-OMe)
reduction in affinity relative to AGDV ([1]; ratio of KD values): 7.5 fold
Kd [1]: 67.6 ± 23.3 µM

Compound: AGD
IC50 [7]: ~100 µM
